Measurements from patent publication US20230233569A1 (Revolution Medicines, Inc., priority 2020, published 2023).

Experiments:
NRAS WT = NRAS WT (Homo sapiens, UniProt P01111+P62937); experiment: Disruption of BRAF RBD interaction with Ras (FRET / MOA assay, with Cyclophilin A); type: biochemical; settings: NRAS WT; read-out: NRAS WT FRET data IC50
Outline: (§1)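 IC50 reflects compound-driven Ras:Cyclophilin A ternary complex displacing BRAF RBD, read as lowered TR-FRET ratio relative to DMSO after Eu anti-His (10 nM) and APC anti-GST (50 nM) detection for 1.5 h. Prior incubation 3 h, 25° C, with 12.5 nM GMPPNP-loaded Ras, 50 nM BRAF RBD, 25 μM Cyclophilin A; top compound 30 μM.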

NRAS Q61R = NRAS Q61R (Homo sapiens, UniProt P01111+P62937, Q61R); experiment: as above; type: biochemical; settings: NRAS Q61R; read-out: NRAS Q61R FRET data IC50
Outline: as §1

KRAS Q61H = KRAS Q61H (Homo sapiens, UniProt P01116+P62937, Q61H); experiment: as above; type: biochemical; settings: KRAS Q61H; read-out: KRAS Q61H FRET data IC50
Outline: as §1

NRAS Q61K = NRAS Q61K (Homo sapiens, UniProt P01111+P62937, Q61K); experiment: as above; type: biochemical; settings: NRAS Q61K; read-out: NRAS Q61K FRET data IC50
Outline: as §1

Capan-1 (K-Ras G12V) = experiment: CellTiter-Glo cell viability assay, 5-day treatment; type: cell-based; settings: Homo sapiens, CAPAN-1, 120 h, 5-day treatment; read-out: Capan-1 Cell Viability assay data (K-Ras G12V, IC50)
Outline: (§2)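 Five-day compound treatment of plated cells; luminescent read after ~30 min at RT. Percent-of-DMSO data fit to a four-parameter logistic model.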

NCI-H358 (K-Ras G12C) = experiment: as above; type: cell-based; settings: Homo sapiens, NCI-H358, 120 h, 5-day treatment; read-out: H358 Cell Viability assay data (K-Ras G12C, IC50)
Outline: as §2

KRAS G12S = KRAS G12S (Homo sapiens, UniProt P01116+P62937, G12S); experiment: Disruption of BRAF RBD interaction with Ras (FRET / MOA assay, with Cyclophilin A); type: biochemical; settings: read-out: KRAS G12S FRET data, IC50
Outline: (§3)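 TR-FRET readout: a drop in ratio relative to DMSO wells marks disruption of the K-Ras:BRAF RBD complex via compound-induced K-Ras–Cyclophilin A ternary complex. Dosing used ten 3-fold steps from 30 μM final, 3 h at 25 °C, then Eu-anti-His 10 nM plus APC-anti-GST 50 nM for another 1.5 h. Values are IC50s.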

KRAS G12C = KRAS G12C (Homo sapiens, UniProt P01116+P62937, G12C); experiment: as above; type: biochemical; settings: read-out: KRAS G12C FRET data, IC50
Outline: as §3

KRAS G13C = KRAS G13C (Homo sapiens, UniProt P01116+P62937, G13C); experiment: as above; type: biochemical; settings: read-out: KRAS G13C FRET data, IC50
Outline: as §3

KRAS WT = KRAS WT (Homo sapiens, UniProt P01116+P62937); experiment: as above; type: biochemical; settings: KRAS WT; read-out: KRAS WT FRET data IC50
Outline: as §3

KRAS G12V = KRAS G12V (Homo sapiens, UniProt P01116+P62937, G12V); experiment: as above; type: biochemical; settings: KRAS G12V; read-out: KRAS G12V FRET data IC50
Outline: as §3

KRAS G12D = KRAS G12D (Homo sapiens, UniProt P01116+P62937, G12D); experiment: as above; type: biochemical; settings: read-out: KRAS G12D FRET data, IC50
Outline: as §3

KRAS G13D = KRAS G13D (Homo sapiens, UniProt P01116+P62937, G13D); experiment: as above; type: biochemical; settings: KRAS G13D; read-out: KRAS G13D FRET data IC50
Outline: as §3

NRAS G12C = NRAS G12C (Homo sapiens, UniProt P01111+P62937, G12C); experiment: as above; type: biochemical; settings: NRAS G12C; read-out: NRAS G12C FRET data IC50
NRAS G12C, sequence (P01111 whole entry G12C): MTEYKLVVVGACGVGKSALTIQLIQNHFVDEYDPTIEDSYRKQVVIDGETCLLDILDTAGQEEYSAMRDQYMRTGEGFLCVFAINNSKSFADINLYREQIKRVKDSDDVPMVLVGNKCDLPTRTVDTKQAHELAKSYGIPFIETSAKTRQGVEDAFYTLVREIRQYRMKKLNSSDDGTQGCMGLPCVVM
NRAS G12C, sequence (P62937 whole entry): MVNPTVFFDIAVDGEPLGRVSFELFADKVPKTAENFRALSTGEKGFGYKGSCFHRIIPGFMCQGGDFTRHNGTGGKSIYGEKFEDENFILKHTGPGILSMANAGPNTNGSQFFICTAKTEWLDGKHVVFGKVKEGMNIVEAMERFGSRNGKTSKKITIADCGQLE

KRAS G13C, sequence (P01116 1-169 isoform P01116-2 G13C): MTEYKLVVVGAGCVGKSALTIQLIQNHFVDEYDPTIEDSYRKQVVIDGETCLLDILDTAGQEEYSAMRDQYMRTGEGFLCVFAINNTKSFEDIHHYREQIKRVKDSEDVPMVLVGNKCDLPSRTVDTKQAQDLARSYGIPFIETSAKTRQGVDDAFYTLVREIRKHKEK
KRAS G13C, sequence (P62937 whole entry): as the sequence (P62937 whole entry) above
NRAS Q61R, sequence (P01111 whole entry Q61R): as the sequence (P01111 whole entry G12C) above, with C12G, Q61R counted along it
NRAS Q61R, sequence (P62937 whole entry): as the sequence (P62937 whole entry) above
KRAS WT, sequence (P01116 1-169 isoform P01116-2 limits assumed): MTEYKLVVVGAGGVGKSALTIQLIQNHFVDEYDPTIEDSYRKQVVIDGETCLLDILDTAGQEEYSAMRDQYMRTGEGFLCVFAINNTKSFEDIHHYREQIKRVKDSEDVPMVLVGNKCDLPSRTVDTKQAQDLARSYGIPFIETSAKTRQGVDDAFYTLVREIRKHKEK
KRAS WT, sequence (P62937 whole entry): as the sequence (P62937 whole entry) above
NRAS Q61K, sequence (P01111 whole entry Q61K): as the sequence (P01111 whole entry G12C) above, with C12G, Q61K counted along it
NRAS Q61K, sequence (P62937 whole entry): as the sequence (P62937 whole entry) above
KRAS G12S, sequence (P01116 1-169 isoform P01116-2 G12S limits assumed): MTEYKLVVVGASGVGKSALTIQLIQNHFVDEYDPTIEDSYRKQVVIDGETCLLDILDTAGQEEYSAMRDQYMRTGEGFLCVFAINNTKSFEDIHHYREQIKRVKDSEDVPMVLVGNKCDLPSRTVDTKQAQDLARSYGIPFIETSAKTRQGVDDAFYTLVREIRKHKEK
KRAS G12S, sequence (P62937 whole entry): as the sequence (P62937 whole entry) above
KRAS G12V, sequence (P01116 1-169 isoform P01116-2 G12V limits assumed): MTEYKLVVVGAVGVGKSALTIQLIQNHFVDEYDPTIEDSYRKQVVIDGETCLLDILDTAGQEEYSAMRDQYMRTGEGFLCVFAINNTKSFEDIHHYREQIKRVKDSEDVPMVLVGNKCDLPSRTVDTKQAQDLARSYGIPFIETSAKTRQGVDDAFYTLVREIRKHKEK
KRAS G12V, sequence (P62937 whole entry): as the sequence (P62937 whole entry) above
KRAS Q61H, sequence (P01116 1-169 isoform P01116-2 Q61H limits assumed): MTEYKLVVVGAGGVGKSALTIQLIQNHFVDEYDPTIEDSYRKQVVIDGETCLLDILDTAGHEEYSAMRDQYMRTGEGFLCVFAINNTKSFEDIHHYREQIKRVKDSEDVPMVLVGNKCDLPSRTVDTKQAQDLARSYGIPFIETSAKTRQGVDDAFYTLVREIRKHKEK
KRAS Q61H, sequence (P62937 whole entry): as the sequence (P62937 whole entry) above
KRAS G12C, sequence (P01116 1-169 isoform P01116-2 G12C): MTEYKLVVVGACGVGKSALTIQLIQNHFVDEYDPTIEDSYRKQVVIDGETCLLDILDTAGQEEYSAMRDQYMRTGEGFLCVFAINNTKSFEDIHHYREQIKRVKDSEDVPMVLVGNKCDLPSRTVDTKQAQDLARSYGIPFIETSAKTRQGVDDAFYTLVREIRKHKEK
KRAS G12C, sequence (P62937 whole entry): as the sequence (P62937 whole entry) above
KRAS G13D, sequence (P01116 1-169 isoform P01116-2 G13D limits assumed): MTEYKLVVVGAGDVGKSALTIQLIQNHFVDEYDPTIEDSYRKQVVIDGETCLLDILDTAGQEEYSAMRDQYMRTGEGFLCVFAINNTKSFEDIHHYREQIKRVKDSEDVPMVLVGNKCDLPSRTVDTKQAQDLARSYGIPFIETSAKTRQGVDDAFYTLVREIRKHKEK
KRAS G13D, sequence (P62937 whole entry): as the sequence (P62937 whole entry) above
NRAS WT, sequence (P01111 whole entry): as the sequence (P01111 whole entry G12C) above, with C12G counted along it
NRAS WT, sequence (P62937 whole entry): as the sequence (P62937 whole entry) above
KRAS G12D, sequence (P01116 1-169 isoform P01116-2 G12D limits assumed): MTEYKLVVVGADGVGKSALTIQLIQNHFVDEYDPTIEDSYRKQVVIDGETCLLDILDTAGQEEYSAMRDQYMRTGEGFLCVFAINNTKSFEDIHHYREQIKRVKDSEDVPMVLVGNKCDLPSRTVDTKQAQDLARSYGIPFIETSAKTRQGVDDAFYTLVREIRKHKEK
KRAS G12D, sequence (P62937 whole entry): as the sequence (P62937 whole entry) above

SMILES	IC50 (NRAS WT)	IC50 (NRAS Q61R)	IC50 (KRAS Q61H)	IC50 (NRAS Q61K)	IC50 (Capan-1 (K-Ras G12V))	IC50 (NCI-H358 (K-Ras G12C))	IC50 (KRAS G12S)	IC50 (KRAS G12C)	IC50 (KRAS G13C)	IC50 (KRAS WT)	IC50 (KRAS G12V)	IC50 (KRAS G12D)	IC50 (KRAS G13D)	IC50 (NRAS G12C)
CCn1c(-c2cccnc2[C@H](C)OC)c2c3cc(ccc31)-c1csc(n1)C[C@H](NC(=O)[C@H](C(C)C)N(C)C(=O)N1CC(OC)C1)C(=O)N1CC[C@H](C)[C@H](N1)C(=O)OCC(C)(C)C2 [Example A579, N-((2S)-1-(((6^3S,6^4S,4S,Z)-1^1-ethyl-1^2-(2-((S)-1-methoxyethyl)pyridin-3-yl)-6^4,10,10-trimethyl-5,7-dioxo-6^1,6^2,6^3,6^4,6^5,6^6-hexahydro-1^1H-8-oxa-2(4,2)-thiazola-1(5,3)-indola-6(1,3)-pyridazinacycloundecaphane-4-yl)amino)-3-methyl-1-oxobutan-2-yl)-3-methoxy-N-methylazetidine-1-carboxamide]	100 to 1000 nM	100 to 1000 nM	100 to 1000 nM	100 to 1000 nM	100 to 1000 nM	100 to 1000 nM	1000 to 10000 nM	100 to 1000 nM	100 to 1000 nM	100 to 1000 nM	100 to 1000 nM	1000 to 10000 nM	1000 to 10000 nM	100 to 1000 nM
CCn1c(-c2cccnc2[C@H](C)OC)c2c3cc(ccc31)-c1csc(n1)C[C@H](NC(=O)[C@H](C(C)C)N(C)C(=O)N(C)[C@@H]1CCCN(C)C1)C(=O)N1CCC[C@H](N1)C(=O)OCC(C)(C)C2 [Example A587]	100 to 1000 nM	100 to 1000 nM	100 to 1000 nM	100 to 1000 nM	10 to 100 nM	10 to 100 nM	100 to 1000 nM	100 to 1000 nM	100 to 1000 nM	100 to 1000 nM	1000 to 10000 nM	100 to 1000 nM	100 to 1000 nM	100 to 1000 nM
CCn1c(-c2cccnc2[C@H](C)OC)c2c3cc(ccc31)-c1csc(n1)C[C@H](NC(=O)[C@H](C(C)C)N(C)C(=O)N1CC[C@H](N(C)C)C1)C(=O)N1CCC[C@H](N1)C(=O)OCC(C)(C)C2 [Example A603]	100 to 1000 nM	100 to 1000 nM	100 to 1000 nM	100 to 1000 nM	10 to 100 nM	10 to 100 nM	100 to 1000 nM	100 to 1000 nM	100 to 1000 nM	100 to 1000 nM	100 to 1000 nM	100 to 1000 nM	100 to 1000 nM	100 to 1000 nM
CCn1c(-c2cccnc2[C@H](C)OC)c2c3cc(ccc31)-c1csc(n1)C[C@H](NC(=O)[C@H](C(C)C)N(C)C(=O)N1CCOC[C@@H]1c1ccccc1)C(=O)N1CCC[C@H](N1)C(=O)OCC(C)(C)C2 [Example A604]	1000 to 10000 nM	1000 to 10000 nM	100 to 1000 nM	100 to 1000 nM	1000 to 10000 nM	100 to 1000 nM	1000 to 10000 nM	1000 to 10000 nM	1000 to 10000 nM	1000 to 10000 nM	1000 to 10000 nM	1000 to 10000 nM	1000 to 10000 nM	1000 to 10000 nM
CCn1c(-c2cccnc2[C@H](C)OC)c2c3cc(ccc31)-c1csc(n1)C[C@H](NC(=O)[C@H](C(C)C)N(C)C(=O)N1[C@@H](C)CN(C)C[C@@H]1C)C(=O)N1CCC[C@H](N1)C(=O)OCC(C)(C)C2 [Example A609]	1000 to 10000 nM	100 to 1000 nM	100 to 1000 nM	100 to 1000 nM	100 to 1000 nM	1000 to 10000 nM	1000 to 10000 nM	1000 to 10000 nM	1000 to 10000 nM	1000 to 10000 nM	1000 to 10000 nM	1000 to 10000 nM	1000 to 10000 nM	100 to 1000 nM
CCn1c(-c2cccnc2[C@H](C)OC)c2c3cc(ccc31)-c1csc(n1)C[C@H](NC(=O)[C@H](C(C)C)N(C)C(=O)N1[C@H](C)CN(C)C[C@H]1C)C(=O)N1CCC[C@H](N1)C(=O)OCC(C)(C)C2 [Example A610]	100 to 1000 nM	100 to 1000 nM	10 to 100 nM	100 to 1000 nM	100 to 1000 nM	100 to 1000 nM	100 to 1000 nM	100 to 1000 nM	100 to 1000 nM	100 to 1000 nM	100 to 1000 nM	100 to 1000 nM	100 to 1000 nM	100 to 1000 nM
